Data taken from patent US8354436B2 (4SC Discovery GmbH, priority 2011, dated 2013).
Like-named read-outs stand apart in the source and are kept apart here.

Assays:
Format in all cases: cell-based
Conditions in all cases: 48 hours
[1] = tested on: IFN-γ; assay: IFN-γ production by PHA-stimulated human PBMC (OptEIA human IFN-g ELISA)
In short: (§1)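 Healthy-donor PBMC (1×10^5 cells/well) activated with 2 μg/ml PHA and incubated with compounds for 48 h. Supernatant IL-17AA/AF read by Luminex BioPlex, IL-17AA, IL-17FF and IFN-γ by ELISA. Screening at 10, 1, 0.1 and 0.01 μM; IC50 from semilogarithmic titrations.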

[2] = tested on: PBMC from healthy human donors; assay: T cell proliferation assay (PHA-stimulated human PBMC, BrdU ELISA)
In short: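 Proliferation was quantified by BrdU ELISA 48 hours after starting culture of 1×10⁵ human PBMC per well with test compound and 2 μg/ml phytohaemagglutinin. Cells came from healthy donors via Ficoll separation and were kept in RPMI1640 with 10% dialysed heat-inactivated FCS.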

[3] = tested on: IL-17FF; assay: IL-17FF production by PHA-stimulated human PBMC (human IL-17F ELI-Pair)
In short: as §1

[4] = PHA-stimulated human PBMC, column C, read-out: IC50 (IFNγ)
[5] = PHA-stimulated human PBMC, column D, read-out: IC50 (Tcell proliferation)
[6] = PHA-stimulated human PBMC, column B, read-out: IC50 (IL-17FF)
[7] = human PBMC, 2 μg/ml PHA, read-out: C: IC50 (IFNγ)
[8] = human PBMC, 2 μg/ml PHA, read-out: D: IC50 (Tcell proliferation)
[9] = human PBMC, 2 μg/ml PHA, read-out: B: IC50 (IL-17FF)

SMILES	IC50 [1, 4] [nM]	IC50 [2, 5] [nM]	IC50 [3, 6] [nM]	IC50 [1, 7] [nM]	IC50 [2, 8] [nM]	IC50 [3, 9] [nM]
CCOC(=O)c1c(-c2c(F)cccc2Cl)noc1-c1cnn(-c2cccc([N+](=O)[O-])c2)c1C(F)(F)F [IB-90, ethyl 3-(2-chloro-6-fluorophenyl)-5-(1-(3-nitrophenyl)-5-(trifluoromethyl)-1H-pyrazol-4-yl)isoxazole-4-carboxylate]	10 to 100	10 to 100	10 to 100			
COC(=O)c1c(-c2c(F)cccc2Cl)noc1-c1cnn(-c2cccc(NC(C)=O)c2)c1C(F)(F)F [IB-89, 5-(1-(3-acetamidophenyl)-5-(trifluoromethyl)-1H-pyrazol-4-yl)-3-(2-chloro-6-fluorophenyl)isoxazole-4-carboxylate]	10 to 100	100 to 1000	10 to 100			
CCOC(=O)c1c(-c2c(F)cccc2Cl)noc1-c1cnn(CC2CCCO2)c1C(F)(F)F (stereo not drawn) [IB-96, ethyl 3-(2-chloro-6-fluorophenyl)-5-(1-((tetrahydrofuran-2-yl)methyl)-5-(trifluoromethyl)-1H-pyrazol-4-yl)isoxazole-4-carboxylate]	10 to 100	10 to 100	10 to 100			
CNC(=O)c1c(-c2c(F)cccc2Cl)noc1-c1cnn(-c2ccccn2)c1C(F)(F)F [IB-93, 3-(2-chloro-6-fluorophenyl)-N-methyl-5-(1-(pyridin-2-yl)-5-(trifluoromethyl)-1H-pyrazol-4-yl)isoxazole-4-carboxamide]	100 to 1000	1000 to 10000	100 to 1000			
Fc1cccc(Cl)c1-c1noc(-c2cnn(-c3ccccc3Cl)c2C(F)(F)F)c1-c1nccs1 [Example B-29, 3-(2-chloro-6-fluorophenyl)-5-(1-(2-chlorophenyl)-5-(trifluoromethyl)-1H-pyrazol-4-yl)-4-(thiazol-2-yl)isoxazole]				100 to 1000	1000 to 10000	1000 to 10000
Fc1ccccc1-n1ncc(-c2onc(-c3c(F)cccc3Cl)c2-c2cnco2)c1C(F)(F)F [Example B-28, 3-(2-chloro-6-fluorophenyl)-5-(1-(2-fluorophenyl)-5-(trifluoromethyl)-1H-pyrazol-4-yl)-4-(oxazol-5-yl)isoxazole]				100 to 1000	100 to 1000	100 to 1000
CCOC(=O)c1c(-c2c(F)cccc2Cl)noc1-c1cnn(Cc2ccccc2F)c1C(F)(F)F [IB-80, ethyl 3-(2-chloro-6-fluorophenyl)-5-(1-(2-fluorobenzyl)-5-(trifluoromethyl)-1H-pyrazol-4-yl)isoxazole-4-carboxylate]	1000 to 10000	1000 to 10000	1000 to 10000			
Cc1nnc(-c2c(-c3c(F)cccc3Cl)noc2-c2cnn(-c3cccnc3)c2C(F)(F)F)o1 [Example B-10, 2-(3-(2-chloro-6-fluorophenyl)-5-(1-(pyridin-3-yl)-5-(trifluoromethyl)-1H-pyrazol-4-yl)isoxazol-4-yl)-5-methyl-1,3,4-oxadiazole]				10 to 100	100 to 1000	100 to 1000
COC(=O)c1c(-c2c(F)cccc2Cl)noc1-c1cnn(-c2c(F)c(F)cc(F)c2F)c1C(F)(F)F [Example I-47, methyl 3-(2-chloro-6-fluorophenyl)-5-(1-(2,3,5,6-tetrafluorophenyl)-5-(trifluoromethyl)-1H-pyrazol-4-yl)isoxale-4-carboxylate]	100 to 1000	100 to 1000	100 to 1000			
Fc1cccc(Cl)c1-c1noc(-c2cnn(-c3cccc(Cl)c3)c2C(F)(F)F)c1-c1ccoc1 [Example B-7, 3-(2-chloro-6-fluorophenyl)-5-(1-(3-chlorophenyl)-5-(trifluoromethyl)-1H-pyrazol-4-yl)-4-(furan-3-yl)isoxazole]				< 10	< 10	< 10
CCOC(=O)c1c(-c2onc(-c3c(F)cccc3Cl)c2C(=O)OC)cnn1-c1ccc(F)cc1 [Example I-26, methyl 3-(2-chloro-6-fluorophenyl)-5-(5-(ethoxycarbonyl)-1-(4-fluorophenyl)-1H-pyrazol-4-yl)isoxazole-4-carboxylate]	1000 to 10000	1000 to 10000	1000 to 10000			
CC(C)NS(=O)(=O)c1cccc(-n2ncc(-c3onc(-c4c(F)cccc4Cl)c3C(=O)OC(C)C)c2C(F)(F)F)c1 [IB-79, isopropyl 3-(2-chloro-6-fluorophenyl)-5-(1-(3-(N-isopropylsulfamoyl)phenyl)-5-(trifluoromethyl)-1H-pyrazol-4-yl)isoxazole-4-carboxylate]	100 to 1000	100 to 1000	100 to 1000			
CC(C)OC(=O)c1c(-c2c(F)cccc2Cl)noc1-c1cnn(-c2ccccc2F)c1C(F)(F)F [Example I-43, i-Propyl 3-(2-chloro-6-fluorophenyl)-5-[1-(2-fluorophenyl)-5-(trifluoromethyl)-1H-pyrazol-4-yl]isoxazole-4-carboxylate]	10 to 100	10 to 100	100 to 1000			
CON(C)C(=O)c1c(-c2ccccc2Cl)noc1-c1cnn(-c2cccc(Cl)c2)c1C(F)(F)F [IB-64, 3-(2-chlorophenyl)-5-(1-(3-chlorophenyl)-5-(trifluoromethyl)-1H-pyrazol-4-yl)-N-methoxy-N-methylisoxazole-4-carboxamide]	100 to 1000	100 to 1000	10 to 100			
NC(=S)c1c(-c2c(F)cccc2Cl)noc1-c1cnn(-c2cccc(Cl)c2)c1C(F)(F)F [Example I-125, 3-(2-chloro-6-fluorophenyl)-5-(1-(3-chlorophenyl)-5-(trifluoromethyl)-1H-pyrazol-4-yl)isoxazole-4-carbothioamide]	100 to 1000	1000 to 10000	100 to 1000			
O=C(Nc1c(-c2c(F)cccc2Cl)noc1-c1cnn(-c2cccc(F)c2)c1C(F)(F)F)C(F)(F)F [IB-22, N-{3-(2-chloro-6-fluorophenyl)-5-[1-(3-fluorophenyl)-5-(trifluoromethyl)-1H-pyrazol-4-yl]-1,2-oxazol-4-yl}-2,2,2-trifluoroacetamide]	1000 to 10000	1000 to 10000	1000 to 10000			
CC(=O)Nc1cccc(-n2ncc(-c3onc(-c4c(F)cccc4Cl)c3-c3nnc(C)s3)c2C(F)(F)F)c1 [Example B-12, N-(3-(4-(3-(2-chloro-6-fluorophenyl)-4-(5-methyl-1,3,4-thiadiazol-2-yl)isoxazol-5-yl)-5-(trifluoromethyl)-1H-pyrazol-1-yl)phenyl)acetamide]				100 to 1000	1000 to 10000	1000 to 10000
Fc1ccccc1-n1ncc(-c2onc(-c3c(F)cccc3Cl)c2-c2nnco2)c1C(F)(F)F [Example 15, 2-(3-(2-chloro-6-fluorophenyl)-5-(1-(2-fluorophenyl)-5-(trifluoromethyl)-1H-pyrazol-4-yl)isoxazol-4-yl)-1,3,4-oxadiazole]				100 to 1000	100 to 1000	100 to 1000
CCOC(=O)c1c(-c2c(F)cccc2Cl)noc1-c1cnn(CC2CCOCC2)c1C(F)(F)F [IB-81, ethyl 3-(2-chloro-6-fluorophenyl)-5-(1-((tetrahydro-2H-pyran-4-yl)methyl)-5-(trifluoromethyl)-1H-pyrazol-4-yl)isoxazole-4-carboxylate]	100 to 1000	100 to 1000	100 to 1000			
CNC(=O)c1c(-c2c(F)cccc2Cl)noc1-c1cnn(-c2ccccc2)c1C(F)(F)F [Example I-59, 3-(2-chloro-6-fluorophenyl)-N-methyl-5-(1-phenyl-5-(trifluoromethyl)-1H-pyrazol-4-yl)isoxazole-4-carboxamide]	100 to 1000	100 to 1000	100 to 1000			
CCOC(=O)c1c(-c2c(F)cccc2Cl)noc1-c1cnn(CCN2CCOCC2)c1C(F)(F)F [IB-97, ethyl 3-(2-chloro-6-fluorophenyl)-5-(1-(2-morpholinoethyl)-5-(trifluoromethyl)-1H-pyrazol-4-yl)isoxazole-4-carboxylate]	100 to 1000	1000 to 10000	100 to 1000			
COC(=O)c1c(-c2c(F)cccc2Cl)noc1-c1cnn(-c2c(Cl)cccc2Cl)c1C(F)(F)F [Example I-70, methyl 3-(2-chloro-6-fluorophenyl)-5-(1-(2,6-dichlorophenyl)-5-(trifluoromethyl)-1H-pyrazol-4-yl)isoxazole-4-carboxylate]	100 to 1000	100 to 1000	100 to 1000			
NC(=S)c1c(-c2c(F)cccc2Cl)noc1-c1cnn(-c2ccccc2F)c1C(F)(F)F [IB-102, 3-(2-chloro-6-fluorophenyl)-5-(1-(2-fluorophenyl)-5-(trifluoromethyl)-1H-pyrazol-4-yl)isoxazole-4-carbothioamide]	100 to 1000	100 to 1000	100 to 1000			
CCOC(=O)c1c(-c2onc(-c3c(F)cccc3Cl)c2C(=O)OC)cnn1-c1ccc(F)cc1F [Example I-35, methyl 3-(2-chloro-6-fluorophenyl)-5-(1-(2,4-difluorophenyl)-5-(ethoxycarbonyl)-1H-pyrazol-4-yl)isoxazole-4-carboxylate]	100 to 1000	100 to 1000	100 to 1000			
COC(=O)c1c(-c2ccccc2F)noc1-c1cnn(-c2cccc(Cl)c2)c1C(F)(F)F [IB-77, methyl 5-(1-(3-chlorophenyl)-5-(trifluoromethyl)-1H-pyrazol-4-yl)-3-(2-fluorophenyl)isoxazole-4-carboxylate]	10 to 100	10 to 100	10 to 100			
